Laboratory results reported in US9504666B2, “Chloroprocaine-based pharmaceutical composition for repeated intrathecal administration” (SINTETICA S.A., priority 2012, dated 2016).
Like-named read-outs stand apart in the source and are kept apart here.

Columns and labels:
[1] = cited from earlier work
rats [2] = conditions: rat, in vivo
Procedure: (§1) A pre-clinical trial was carried out to assess the neurotoxicity of 2-chloroprocaine by intrathecal administration in repeated doses using a saline solution as control.
(§2) A first group of six rats was repeatedly treated with 20 μl of an injectable saline solution by intrathecal administration once a day.

rats [3] = assay: Tail flick latency after repeated intrathecal doses; conditions: for tail flick latency before injecting: before the daily 20 μl intrathecal injection
Procedure: The data are presented as ±SEM average of 6 rats;
as §1, §2

[4] = test system: conus medullaris (cauda equina); assay: Histological nerve injury score of 10 mm caudal portion of conus medullaris (cauda equina); conditions: 0.5% solution
rats [5] = assay: Motor function score after repeated intrathecal doses; conditions: 20 μl of 0.5% solution intrathecally once a day, 7 consecutive days
Procedure: as §1, §2

[6] = Body weight variation after repeated intrathecal doses; conditions: rats, 20 μl of 0.5% solution intrathecally once a day, 7 consecutive days
Procedure: as §1, §2

rats [7] = assay: Behaviour observation in the pre-clinical neurotoxicity trial with repeated intrathecal doses; conditions: for changes in behavior: 7 consecutive days
Procedure: as §1, §2

rat = conditions: in vivo rat models, intrathecal, equipotent concentrations, versus lidocaine; cited from earlier work
rats [8] = conditions: rat, in vivo; remark: listed apart in the source
Procedure: as §1, §2

[9] = in particular in form of hydrochloride; cited from earlier work
[10] = cited from earlier work; remark: listed apart in the source
[11] = 20 μl of 0.5% solution intrathecally, chloroprocaine not significant, bupivacaine P<0.001
[12] = rats, 20 μl of 0.5% solution intrathecally once a day

## CCN(CC)CCOC(=O)c1ccc(N)cc1 [procaine]
[1]; spinal anesthesia, Hodgson et al. 2000
  percentage of cases refractory to local anesthesia: 17%

## CCCCN1CCCCC1C(=O)Nc1c(C)cccc1C (stereo not drawn) [bupivacaine]
Rats [2]
  tolerability compared with other administered concentrations: less tolerated
Rats [3]; 0.5% solution
  tail flick latency before injecting: comparable with the values of rats treated with vehicle
Rats [3]; [11]
  tail flick latency 20 minutes after injection: significant increase
[4]; group of 6 rats, 7 days repeated intrathecal
  moderately inflammatory infiltrate in some fibers, number of rats: one
[4]; rats, 20 μl intrathecally once a day for 7 days, ±SEM of 6 rats, vehicle 0.809±0.067
  histological score (nerve injury score 0 to 3): 0.979±0.110
Rats [5]
  motor functions (score): two rats on the sixth day and three rats on the seventh day showed bilateral limbic weakness which influenced perambulation (score 2)
[6]
  body weight: decreased
Rats [7]; [12]
  changes in behavior: modest sleepiness in one rat on the fifth day and in two rats on the sixth and seventh days
rat
  morphological damage and functional worsening: less severe morphological damage and functional worsening than lidocaine

## CCN(CC)CC(=O)Nc1c(C)cccc1C [lidocaine]
[1]; use in spinal anesthesiological practice, Pollock 2002
  transient neurologic syndrome (TNS): associated to the onset of transient neurologic syndrome (TNS)

## CCN(CC)CCOC(=O)c1ccc(N)cc1Cl [2-chloroprocaine, 2-(diethylaminoethyl) 4-amino-2-chlorobenzoate]
Rats [3]; 0.5% solution
  tail flick latency before injecting: comparable with the values of rats treated with vehicle
Rats [3]; 1% solution
  tail flick latency before injecting: comparable with the values of rats treated with vehicle
Rats [3]; 2% solution
  tail flick latency before injecting: comparable with the values of rats treated with vehicle
Rats [3]; [11]
  tail flick latency 20 minutes after injection: slight increase
Rats [3]; 20 μl of 1% solution intrathecally, P<0.05
  tail flick latency 20 minutes after injection: significant increase
Rats [3]; 20 μl of 2% solution intrathecally, P<0.001
  tail flick latency 20 minutes after injection: significant increase
Rats [8]
  motor functions (score): remained unchanged
[9]
  lasting of effect: 30 to 60 min
  onset: 5 to 15 min
Rats [7]; [12]
  changes in behavior: No appreciable changes in behavior
Rats [7]; rats, 20 μl of 1% solution intrathecally once a day
  changes in behavior: No appreciable changes in behavior
Rats [7]; rats, 20 μl of 2% solution intrathecally once a day
  changes in behavior: No appreciable changes in behavior
Rats [7]; rats, repeated intrathecal, 2-chloroprocaine 2%, bupivacaine 0.5%
  tolerability compared with other administered concentrations: less tolerated
Rats [7]; repeated intrathecal administration
  neurotoxicity of repeated intrathecal administration: does not determine detectable neurotoxicity
[10]; offset by plasma pseudo cholinesterase
  half-life: lower than one
[10]; plasma
  plasma half-life: 45 to 60 s
